Test results from patent US8110655B2, “Method to promote hair growth and/or delay or treat hair loss by administering a TGF-β antagonist or inhibitor” (Auxagen, Inc., priority 2006, dated 2012).
“Also recorded” adds a separate entry of the source.

Key:
[1] = system: full-thickness burn wounds on pig skin; experiment: Hair growth in full-thickness pig skin burn wound model; assay type: in vivo, pig (Yorkshire strain); conditions: for hair growth, % of the original pre-burn area: topical, full-thickness burn, postburn day 30
Text: TGF-β peptantagonists with amino acid sequences corresponding to residues 41-65 of TGF-β1 (SEQ ID NO: 8) and TGF-β2 (SEQ ID NO: 9), and TGF-β peptantagonist 6-β1^25 (SEQ ID NO: 7), which have additional 6 glutamate residues at the N-termini were synthesized and purified as described previously. Sterile IntraSite gel was obtained from Smith and Nephew Medical, Ltd. (UK) and mixed with TGF-β peptantagonists in phosphate-buffered saline at a ratio of 3:1 (v/v).
Female pigs (Yorkshire strain, house inbred and specific pathogen-free) weighing 20-25 kg were used in the experiments. The pigs were housed in individual rooms. They were fed standard laboratory chow and water ad libitum. All study protocols were reviewed and approved by the respective institutional animal care committees.
Four pigs weighing 20-25 kg were anesthetized by intramuscular injection of ketamine (5 mg/kg), strenil (cazaporonum) (20 mg/kg), and atropine ([…]). Six uniform burn wounds (110° C., 30 s) were then made symmetrically on the back of each pig using a modified soldering iron with a flat contact area of 20 cm^2. […] After wounding, IntraSite gels containing 6-E-β1^25 and buffer vehicle (as control) were applied to the pig burn wounds. All wounds were dressed with paraffin gauze. TGF-β peptantagonist gel or control gel was applied to the wounds every 2 days for the first 10 days and twice a week for the next 30 days. All wounds were cleaned and measured before each application of the IntraSite gel.
Hair growth was assessed by measuring hair number and hair length in the burn lesion and around the lesion area. Hair growth was monitored every 2 days for the first 10 days and twice a week for 30 more days. Hair growth expressed as a percent of the original wound size was calculated.
The pig model is commonly used in skin injury (e.g., burn) experiments because porcine skin is anatomically very similar to human skin. It was used to determine the ability of 6-E-β1^25 peptantagonist to rescue or restore hair follicles and to promote hair growth in a standardized burn injury. Four pigs weighing 20-25 kg were anesthetized by intramuscular injection of ketamine (5 mg/kg). A soldering iron with a flat contact area of ˜20 cm^2 was used to generate full-thickness burn wounds (110° C., 30 s) at standard sites on the skin of the back. Six thermal burns (three on each side) were created on each pig. After wounding, two lesions were treated with a thin layer of IntraSite gel containing 6-E-β1^25 (SEQ ID NO: 7) (0.15 and 0.6 mM); two received gel alone and two received no topical applications. All wounds were then bandaged and protected from potential contact irritation with a fixed frame. 6-E-β1^25 (SEQ ID NO: 7) and vehicle gels were applied every 2 days for the first 10 days and twice a week for the next 30 days, at which time hair growth was measured and photographed. Each animal served as its own control. […] At 0.15 and 0.6 mM, 6-E-β1^25 (SEQ ID NO: 7) promoted hair growth of 5-10 and 30-40% of the original pre-burn area, respectively.

TGF-β = TGF-β antagonist activity of C44S/C48S variants (test not specified); conditions: C44S/C48S versions versus parent peptides
Text: In another embodiment of the invention variants of peptantagonists β3^25 (41-65) (SEQ ID NO: 4), β2^25 (41-65) (SEQ ID NO: 5), and β3^25 (41-65) (SEQ ID NO: 6), are provided in which cysteine-44 and cysteine-48 were replaced by serine residues.

[2] = system: mink lung epithelial cells; conditions: mink lung epithelial cells and other cell types; U.S. Pat. No. 6,500,920; cited from earlier work
[3] = system: TGF-β receptors in mink lung epithelial cells; conditions: earlier finding of the inventors (U.S. Pat. No. 6,500,920); cited from earlier work
PAI-1 = conditions: mink lung epithelial cells and other cell types; U.S. Pat. No. 6,500,920; cited from earlier work
[4] = Stability in solution / in IntraSite gel during storage; conditions: C44S/C48S versions versus parent peptides
Protocol: One milliliter of sterile 3 mM each of TGF-β peptantagonist 6-E-β1^25 (SEQ ID NO: 7), in phosphate-buffered saline (PBS) or 1 ml of sterile PBS (vehicle) was vigorously mixed with 3 ml of IntraSite gel using two 10 ml syringes connected with a three-way connector.

Substance | TGF-β antagonist activity compared with the cysteine-containing peptantagonists (TGF-β) | block of TGF-β-induced growth inhibition [2] | inhibition of binding of radiolabeled TGF-β1, TGF-β2 and TGF-β3 to TGF-β receptors [3] | block of TGF-β-induced expression of PAI-1 (PAI-1) | other results
6-E-β1^25: β1^25 C44S/C48S derivitized with 6 glutamate at the N-terminus (EEEEEEANFSLGPSPYIWSLDTQYSKVLALY; six N-terminal glutamates; listed as Homo Sapiens) |  |  |  |  | hair growth, % of the original pre-burn area ([1]; 0.15 mM in IntraSite gel): 5-10%; hair growth, % of the original pre-burn area ([1]; 0.6 mM in IntraSite gel): 30-40%; promotion of hair growth (effective concentrations, dose dependence) ([1]; 0.15 and 0.6 mM in IntraSite gel): effective in promoting hair growth; also recorded: promote hair growth in a dose-dependent manner; hair growth in the area surrounding the burn wound ([1]; 0.15 and 0.6 mM, topical gel): promoted hair growth in the area surrounding the burn wound; re-epithelialization and hair growth of treated wounds ([1]; postburn day 30, topical gel): exhibited re-epithelialization and hair growth
NH2-ANFSLGPSPYIWSLDTQYSKVLALY-COOH (H-ANFSLGPSPYIWSLDTQYSKVLALY-OH; listed as Homo Sapiens) [β1^25 C44S/C48S, variant of β1^25 (41-65) in which cysteine-44 and cysteine-48 were replaced by serine residues] | the same TGF-β antagonist activity |  |  |  | 
β1^25 (41-65): chemically synthesized peptide corresponding to the 41st to 65th amino acid residues of TGF-β1 |  | block | inhibit | block | 
β2^25 (41-65): chemically synthesized peptide corresponding to the 41st to 65th amino acid residues of TGF-β2 (ANFCAGACPYLWSSDTQHSRVLSLY; listed as Homo Sapiens) |  | block | inhibit | block | 
β2^25 C44S/C48S: variant of β2^25 (41-65) in which cysteine-44 and cysteine-48 were replaced by serine residues (ANFSAGASPYLWSSDTQHSRVLSLY; listed as Homo Sapiens) | the same TGF-β antagonist activity |  |  |  | stability in solution during storage [4]: better stability in solution during storage
β3^25 (41-65): chemically synthesized peptide corresponding to the 41st to 65th amino acid residues of TGF-β3 (ANFCSGPCPYLRSADTTHSTVLGLY; listed as Homo Sapiens) |  | block | inhibit | block | 
β3^25 C44S/C48S: variant of β3^25 (41-65) in which cysteine-44 and cysteine-48 were replaced by serine residues (ANFSSGPSPYLRSADTTHSTVLGLY; listed as Homo Sapiens) | the same TGF-β antagonist activity |  |  |  | stability in solution during storage [4]: better stability in solution during storage
